The results in this text go back to the supplement of paper PMC10949913.

Common to all, as to experiment: area under concentration-response curve (viability) (AUC (a.u.)); higher = less active
What all share (conditions): 48 h

Test [1] deals with CU-ACC1. The method in brief:
(§1)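 After 48 h of treatment with 23 nL of each library compound at 11 concentrations, three adrenocortical carcinoma cell lines in 1,536-well plates (500–1,000 cells/well, 5 µL medium) were given CellTiter-Glo for 15 minutes at room temperature. Luminescence was then read and normalised per plate to vehicle and empty-well controls. AC50 and area under the curve were drawn from fitted concentration-response curves of inhibitory or non-responding classes only.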

Test [2] deals with CU-ACC2. The method in brief: as §1
For test [3], the system named is NCI-H295R. The method in brief:
as §1

On to `CC#CCn1c(N2CCC[C@@H](N)C2)nc2c1c(=O)n(Cc1nc(C)c3ccccc3n1)c(=O)n2C`, for which the “area under concentration-response curve” value amounted to 503 in test [1], 606 in test [2] and 561 in test [3].

On to `CCN1C(=O)\C(=C/C2=C1N=C(NC3=CC=C(N4CCNCC4)C(=C3)F)N=C2)C5=CC=C(Cl)C=C5Cl`, for which the results for the “area under concentration-response curve” value in test [1], in test [2] and in test [3] were 518, 580 and 537, respectively.

`CCCCCCCc1ccc(CCc2cccc(O)c2C(=O)O)cc1`: the “area under concentration-response curve” value turned out to be 515 in test [1], 574 in test [2] and 534 in test [3].

Take `CCCCNc1ncc(-c2ccc(CN3CCOCC3)cn2)c(N[C@H]2CC[C@H](O)CC2)n1`: the “area under concentration-response curve” value was 612 in test [1], 721 in test [2] and 623 in test [3].

On to `CCCC1OC2C[C@H]3[C@@H]4CCC5=CC(=O)C=C[C@]5(C)[C@H]4C(O)C[C@]3(C)[C@]2(C(=O)CO)O1` (some centres undefined), for which the “area under concentration-response curve” value in test [1] amounted to 562; in test [2] it was 661; in test [3] it was 607.

On to `O=C(Nc1nccs1)C(c1cc(F)ccc1O)N1Cc2ccccc2C1=O` (centres undefined), for which the “area under concentration-response curve” value was 504 in test [1], 557 in test [2] and 524 in test [3].

As for `C[N+]1(C)[C@@H]2CC(OC(=O)[C@H](CO)c3ccccc3)C[C@H]1[C@@H]1O[C@@H]12` (some centres undefined), the “area under concentration-response curve” value in test [1] came to 531; in test [2], 556; in test [3], 500.

For the compound `CNC(=O)CN1CCC(Oc2cc3c(Nc4cccc(Cl)c4F)ncnc3cc2OC)CC1`, the “area under concentration-response curve” value in test [1] is 501; in test [2], 572; in test [3], 570.

`CC(C)OC1=C(F)C=C(C=C1)C2=N[N]([C@@H](C)C/3=C(C4=CC(=CC=C4)F)/C(=O)C5=CC(=CC=C5O3)F)C6=C2C(=NC=N6)N`: the “area under concentration-response curve” value in test [1] was found to be 516; in test [2] it was 641; in test [3], 547.

As for `COc1ccc([C@@H]2Sc3ccccc3N(CCN(C)C)C(=O)[C@@H]2OC(C)=O)cc1`, the “area under concentration-response curve” value in test [1] came to 473; in test [2] it was 576; in test [3] it was 533.

Take `CCCC1=NC(=C2[N]1NC(=N\C2=O)/C3=CC(=CC=C3OCC)[S+]([O-])(=O)N4CCN(CC)CC4)C`: the “area under concentration-response curve” value stood at 462 in test [1], 573 in test [2] and 518 in test [3].

As for `CSCC[C@@H](NC(=O)[C@@H](Cc1ccccc1)NC(=O)CNC(=O)CNC(=O)[C@@H](N)Cc1ccc(O)cc1)C(=O)O`, the “area under concentration-response curve” value in test [1] was 535; in test [2], 616; in test [3], 566.

Take `C[C@@H]\1/N=C(/N)NC(=N1)\N(C)C`: the results for the “area under concentration-response curve” value in test [1], in test [2] and in test [3] were 407, 596 and 549, respectively.

Turning to `CN(C)c1ccc(-c2nc3c(N4CCN(CC(=O)Nc5nccs5)CC4)c(Cl)cnc3[nH]2)cc1`, the “area under concentration-response curve” value amounted to 618 in test [1], 658 in test [2] and 600 in test [3].

As for `CN1CCC(CC1)COC2=CN=C(N=C2)C3=CC(=CC=C3)CN4/N=C(\C=C/C4=O)C5=CC(=CC=C5)C#N`, the “area under concentration-response curve” value amounted to 474 in test [1], 596 in test [2] and 549 in test [3].

On to `COc1ccc(C(=O)N2CCCC2=O)cc1`, for which the results for the “area under concentration-response curve” value in test [1], in test [2] and in test [3] were 533, 655 and 573, respectively.

For the compound `CC(C)C(C)/C=C/C(C)C1CCC2C3=CC=C4CC(O)CCC4(C)C3CCC21C` (centres undefined), the figures for the “area under concentration-response curve” value in test [1], in test [2] and in test [3] were 521, 636 and 597, respectively.

Turning to `C=CC(=O)Nc1cc(N2CCN(CC)CC2)ccc1Nc1cc(N(C)C(=O)Nc2c(Cl)c(OC)cc(OC)c2Cl)ncn1`, the “area under concentration-response curve” value in test [1] stood at 537; in test [2] it was 566; in test [3] it was 495.

As to `C[C@H]1CC2[C@@H]3CCC/4=C/C(=O)/C=C\[C@]4(C)[C@@]3(F)[C@@H](O)C[C@]2(C)[C@@]1(O)C(=O)CO` (some centres undefined), the “area under concentration-response curve” value was 477 in test [1], 572 in test [2] and 551 in test [3].

Turning to `CC(C)C[C@H](NC(=O)[C@@H](O)[C@H](N)Cc1ccccc1)C(=O)O`, the “area under concentration-response curve” value in test [1] is 459; in test [2], 571; in test [3], 494.

Turning to `CCC(C)C(N)\C1=N\C(CS1)C(=O)N[C@@H](CC(C)C)C(=O)N[C@H](CCC(O)=O)C(=O)N[C@@H]([C@@H](C)CC)C(=O)N[C@H]2CCCCNC(=O)[C@H](CC(N)=O)NC(=O)[C@@H](CC(O)=O)NC(=O)[C@H](CC3=CN=C[NH]3)NC(=O)[C@@H](CC4=CC=CC=C4)NC(=O)[C@@H](NC(=O)[C@@H](CCCN)NC2=O)[C@@H](C)CC` (some centres undefined), the “area under concentration-response curve” value in test [1] worked out at 593; in test [2], 682; in test [3], 582.

In the case of `[O-][S+]1(=O)/N=C(/NC2=CC(=CC=C2)NC(=O)CCl)C3=CC=CC=C13`, the “area under concentration-response curve” value worked out at 446 in test [1], 557 in test [2] and 528 in test [3].

With `CCCC1=N[N](C)C2=C1\N=C(/NC2=O)C3=CC(=CC=C3OCC)[S+]([O-])(=O)N4CCN(C)CC4`, the entries for the “area under concentration-response curve” value in test [1], in test [2] and in test [3] were 561, 610 and 539, respectively.

Regarding `COCCNc1cc(NC(=O)N2CCCc3cc(CN4CCN(C)CC4=O)c(C=O)nc32)ncc1C#N`, the “area under concentration-response curve” value in test [1] turned out to be 552; in test [2], 550; in test [3], 564.

Turning to `CC1=CC(=C(O)C(=C1C\C2=N\CCN2)C)C(C)(C)C`, the “area under concentration-response curve” value turned out to be 515 in test [1], 579 in test [2] and 496 in test [3].

With `CNC(=O)Cn1cc(-c2ccc3c(c2)C(F)CC32NC(=O)N(CC(=O)N(Cc3ccc(F)cc3)[C@@H](C)C(F)(F)F)C2=O)cn1` (some centres undefined), the “area under concentration-response curve” value is 517 in test [1], 549 in test [2] and 504 in test [3].

`CN1\C(=C(\O)C2=C(C=CC=C2)[S+]1([O-])=O)C(=O)NC3=CC=CC=N3`: the “area under concentration-response curve” value in test [1] came to 432; in test [2], 495; in test [3], 464.

Regarding `C/C=C(/C)C(=O)O[C@H]1C(C)=CC23C(=O)C(C=C(CO)[C@@H](O)[C@]12O)[C@H]1[C@@H](C[C@H]3C)C1(C)C` (some centres undefined), the results for the “area under concentration-response curve” value in test [1], in test [2] and in test [3] were 399, 505 and 484, respectively.

On to `N#Cc1cccc(-c2c[nH]c3ncnc(N4CCOCC4)c23)c1`, for which the results for the “area under concentration-response curve” value in test [1], in test [2] and in test [3] were 508, 595 and 553, respectively.

With `CC1=CC/2=C(C=C1C)N(C[C@@H](O)[C@@H](O)[C@@H](O)CO)C/3=N/C(=O)NC(=O)C3=N2`, the “area under concentration-response curve” value turned out to be 481 in test [1], 586 in test [2] and 505 in test [3].

Take `CN1CCN(CC1)C\2=C\3/C=C(/C)SC3=N/C4=CC=CC=C4N2`: the figures for the “area under concentration-response curve” value in test [1], in test [2] and in test [3] were 556, 513 and 555, respectively.

Consider `CC1CCN(c2cc(N3CCN(C)CC3)ccc2NC(=O)c2cc(C#N)c[nH]2)CC1`, for which the “area under concentration-response curve” value in test [1] came to 542; in test [2], 600; in test [3], 544.

`COc1cc(F)c(C(C)C)cc1-c1ccc(C(F)(F)F)cc1CN1C(=O)O[C@H](c2cc(C(F)(F)F)cc(C(F)(F)F)c2)[C@@H]1C`: the entries for the “area under concentration-response curve” value in test [1], in test [2] and in test [3] were 421, 505 and 428, respectively.

As for `Cn1cc(-c2ccc3ncc(Cc4ccc5ncccc5c4)n3n2)cn1`, the “area under concentration-response curve” value in test [1] is 450; in test [2], 545; in test [3] it was 497.

Turning to `CC1COC2=C3N1\C=C(C(O)=O)/C(=O)C3=CC(=C2N4CCN(C)CC4)F` (centres undefined), the “area under concentration-response curve” value worked out at 474 in test [1], 537 in test [2] and 517 in test [3].

Take `COCC1(CO)C(=O)C2CCN1CC2` (centres undefined): the “area under concentration-response curve” value is 443 in test [1], 513 in test [2] and 468 in test [3].

As to `Cc1ccc([S+](=O)([O-])NC(=O)NN2CC3CCCC3C2)cc1` (centres undefined), the entries for the “area under concentration-response curve” value in test [1], in test [2] and in test [3] were 537, 629 and 579, respectively.

For `CC[N+](CC)(CC)CCOc1cccc(OCC[N+](CC)(CC)CC)c1OCC[N+](CC)(CC)CC`, the entries for the “area under concentration-response curve” value in test [1], in test [2] and in test [3] were 412, 472 and 474, respectively.
